Data set [1] concerns Staphylococcus aureus. Briefly: In vivo antibacterial activity against methicillin-resistant Staphylococcus aureus ATCC 43300 infected locally in full thickness skin wound mouse model assessed as reduction in bacterial load in skin wound at 4 mg/kg treated with absorbable gelatin sponge measured after 7 days. Type of data set: functional, organism-based. Particulars: time 7.0 day.

For data set [2], the system named is Klebsiella pneumoniae. The experiment in a line: Antimicrobial activity against Klebsiella pneumoniae ATCC 13883 assessed as growth inhibition measured after 8 hrs incubation by standard broth dilution assay. Type of data set: functional. (In general: In broth dilution the organism is exposed to a series of concentrations in liquid medium.)
Data set [3] has as its system Staphylococcus aureus. The experiment in a line: Antibiofilm activity in methicillin-resistant Staphylococcus aureus ATCC 43300 assessed as reduction in biofilm formation at 37.2 ug/ml measured after 24 hrs by crystal violet staining based assay relative to control. Type of data set: functional. More on the design: scale not given: the % may be the effect or the level left. The conditions noted are these: dose 37.2 µg/ml.

A short description of data set [4]: Toxicity in mouse assessed as fasciculus necrosis at 40 mg/kg, sc by H and E staining based assay. Type of data set: organism-based. Particulars: in vivo.
Data set [5] relates to Staphylococcus aureus. The experiment in a line: In vivo antibacterial activity against methicillin-resistant Staphylococcus aureus ATCC 43300 infected locally in full thickness skin wound mouse model assessed as reduction in bacterial load in skin wound at 1 mg/kg treated with absorbable gelatin sponge measured after 7 days. Type of data set: functional, organism-based. Particulars: time 7.0 day.

Data set [6] can be described thus: Toxicity in mouse skin assessed as abscesses and visual lesions at 40 mg/kg, sc by histological analysis. Particulars: in vivo. Type of data set: organism-based.
The subject of data set [7] is Cell membrane. Briefly: Induction of cell membrane damage in methicillin-resistant Staphylococcus aureus ATCC 43300 assessed as increase in green fluorescence at MIC measured after 1 hr incubation by SYTO9 confocal microscopy. It is filed as subcellular.
The subject of data set [8] is Cell membrane. The experiment in a line: Induction of cell membrane damage in methicillin-resistant Staphylococcus aureus ATCC 43300 assessed as increase in red fluorescence at MIC measured after 1 hr incubation by PI based assay. It is filed as subcellular.
The subject of data set [9] is Cell membrane. The experiment in a line: Binding affinity to Klebsiella pneumoniae ATCC 13883 cell membrane treated with FITC labelled peptides at MIC measured after 1.5 hr by CLSM imaging analysis. Type of data set: subcellular.
Data set [10] has as its system Staphylococcus aureus. The experiment in a line: In vivo antibacterial activity against methicillin-resistant Staphylococcus aureus ATCC 43300 infected locally in full thickness skin wound mouse model assessed as clean and less exudate at 1 mg/kg treated with absorbable gelatin sponge measured on early healing stage. Type of data set: functional, organism-based. Particulars: route id.

The test system of data set [11] is Cell membrane. Briefly: Induction of cell membrane damage in Klebsiella pneumoniae ATCC 13883 assessed as corrugation, blebbing, breakage, and fragmentation at MIC measured after 1 hr incubation by Scanning electron microscopy. It is filed as subcellular.
Data set [12] has as its system Pseudomonas aeruginosa. The experiment in a line: Antimicrobial activity against Pseudomonas aeruginosa ATCC 27853 assessed as growth inhibition measured after 8 hrs incubation by standard broth dilution assay. Type of data set: functional.
Data set [13] relates to Staphylococcus aureus. Briefly: Antimicrobial activity against methicillin-resistant Staphylococcus aureus ATCC 43300 assessed as growth inhibition measured after 8 hrs incubation by standard broth dilution assay. Type of data set: functional.
Data set [14] has as its system Cell membrane. The experiment in a line: Induction of cell membrane damage in methicillin-resistant Staphylococcus aureus ATCC 43300 assessed as corrugation, blebbing, breakage, and fragmentation at MIC measured after 1 hr incubation by Scanning electron microscopy. Type of data set: subcellular.
Data set [15] has as its system Klebsiella pneumoniae. Briefly: Antibiofilm activity in Klebsiella pneumoniae ATCC 13883 assessed as reduction in biofilm formation at 150 ug/ml measured after 24 hrs by crystal violet staining based assay relative to control. More on the design: scale not given: the % may be the effect or the level left. The conditions noted are these: dose 150 µg/ml. Type of data set: functional.

Data set [16] deals with Cell membrane. The experiment in a line: Induction of cell membrane damage in Klebsiella pneumoniae ATCC 13883 assessed as increase in red fluorescence at MIC measured after 1 hr incubation by PI based confocal microscopy. It is filed as subcellular.
Data set [17] relates to Staphylococcus aureus. Briefly: In vivo antibacterial activity against methicillin-resistant Staphylococcus aureus ATCC 43300 infected locally in full thickness skin wound mouse model assessed as reduction in bacterial load in skin wound at 4 mg/kg treated with absorbable gelatin sponge measured after 3 days. It is filed as functional, organism-based. The conditions noted are these: time 3.0 day.

The test system of data set [18] is Klebsiella pneumoniae. The experiment in a line: In vivo antibacterial activity against Klebsiella pneumoniae ATCC 13883 induced bacterial pneumonia mouse model assessed as reduction in bacterial infection induced weight loss at 4 mg/kg, injected into trachea after 24 hrs of infection measured after 3 to 7 days. Type of data set: functional, organism-based.
Data set [19] can be described thus: Toxicity in mouse assessed as intramuscular injury at 40 mg/kg, sc by H and E staining based assay. The conditions noted are these: in vivo. Type of data set: organism-based.
In data set [20] the test system is Staphylococcus aureus. The experiment in a line: In vivo antibacterial activity against methicillin-resistant Staphylococcus aureus ATCC 43300 infected locally in full thickness skin wound mouse model assessed as reduction in bacterial load in skin wound at 1 mg/kg treated with absorbable gelatin sponge measured after 3 days. Type of data set: functional, organism-based. Particulars: time 3.0 day.

The test system of data set [21] is Cell membrane. Briefly: Binding affinity to methicillin-resistant Staphylococcus aureus ATCC 43300 cell membrane treated with FITC labelled peptides at MIC measured after 1.5 hr by CLSM imaging analysis. It is filed as subcellular.
For data set [22], the system named is Streptococcus pneumoniae. Briefly: Antimicrobial activity against Streptococcus pneumoniae ATCC 49619 assessed as growth inhibition measured after 8 hrs incubation by standard broth dilution assay. Type of data set: functional.
Data set [23] has as its system Staphylococcus aureus. Briefly: In vivo antibacterial activity against methicillin-resistant Staphylococcus aureus ATCC 43300 infected locally in full thickness skin wound mouse model assessed as reduced skin damage by promoting wound healing at 4 mg/kg treated with absorbable gelatin sponge measured on early healing stage. The conditions noted are these: route id. It is filed as functional, organism-based.

Data set [24] concerns Cell membrane. The experiment in a line: Induction of cell membrane damage in methicillin-resistant Staphylococcus aureus ATCC 43300 assessed as significant plasma membrane rupture, […], and cytoplasmic leakage at MIC measured after 1 hr incubation by Transmission electron microscopy. It is filed as subcellular.
For data set [25], the system named is Cell membrane. Briefly: Induction of cell membrane damage in Klebsiella pneumoniae ATCC 13883 assessed as increase in green fluorescence at MIC measured after 1 hr incubation by SYTO9 confocal microscopy. It is filed as subcellular.
Data set [26] has as its system Klebsiella pneumoniae. Briefly: In vivo antibacterial activity against Klebsiella pneumoniae ATCC 13883 induced bacterial pneumonia mouse model assessed as reduction in bacterial infection induced weight loss at 1 mg/kg, injected into trachea after 24 hrs of infection measured after 3 to 7 days. Type of data set: functional, organism-based.
Data set [27] concerns Cell membrane. Briefly: Induction of cell membrane damage in Klebsiella pneumoniae ATCC 13883 assessed as significant plasma membrane rupture, cytosolic membrane and outer membrane separation, and cytoplasmic leakage at MIC measured after 1 hr incubation by Transmission electron microscopy. Type of data set: subcellular.
A short description of data set [28]: Hemolytic activity in BALB/c mouse red blood cells assessed as hemolysis incubated for 1 hrs. Type of data set: toxicity, cell-based, Erythrocyte. The conditions noted are these: read-out: HD50.

≈ marks a conversion by molar mass, not a printed value. Calls of active or inactive are those of the source. The rule behind the calls is not given here. Starred links: 1 amine or outer side, 2 acyl side, 3 side chain; linkers in the order of their positions; H or OH if unused. Non-standard residues stand in square brackets, D forms with d. Residues, ends and D or L forms follow the SMILES beside them. X1 = N=C(NCCC[C@H](N[*:1])C(=O)[*:2])N[C@@H]1O[C@H](CO)[C@@H](O[C@H]2O[C@H](CO)[C@@H](O[C@H]3O[C@H](CO)[C@@H](O)[C@H](O)[C@H]3O)[C@H](O)[C@H]2O)[C@H](O)[C@H]1O; X2 = CC(=O)N[C@@H]1[C@@H](O)[C@H](O)[C@@H](CO)O[C@H]1NC(=N)NCCC[C@H](N[*:1])C(=O)[*:2]

For orientation: MIC means the lowest concentration found to suppress growth. Turning to `CC(=O)N[C@@H](CC(C)C)C(=O)N[C@@H](CCCCN)C(=O)N[C@@H](CCCNC(=N)N)C(=O)N[C@H](C(=O)N[C@@H](Cc1c[nH]c2ccccc12)C(=O)N[C@@H](CCCCN)C(=O)N[C@@H](CCCNC(=N)N)C(=O)N[C@H](C(=O)N[C@@H](Cc1ccccc1)C(=O)N[C@@H](CCCCN)C(=O)N[C@@H](CC(C)C)C(=O)N[C@@H](CC(C)C)C(=O)N[C@@H](CCCCN)C(=O)N[C@@H](CCCNC(=N)N)C(=O)N[C@@H](Cc1ccc(O)cc1)C(=O)N[C@@H](Cc1c[nH]c2ccccc12)C(=O)N[C@@H](CCCNC(=N)N)C(=O)N[C@@H](CCC(N)=O)C(=O)N[C@@H](CC(C)C)C(=O)N[C@@H](CCCCN)C(=O)N[C@@H](CCCCN)C(=O)N1CCC[C@H]1C(=O)N[C@H](C(=O)N[C@@H](CCCNC(=N)N)C(N)=O)C(C)C)C(C)C)C(C)C` (Ac-LKRVWKRVFKLLKRYWRQLKKPVR-NH2), the result in data set [1], in data set [5], in data set [7], in [8], in data set [9] and in data set [16] was Active. Besides, the result in data set [17], in data set [18], in data set [20], in [21], in data set [23] and in [24] was Active. Further, the result in data set [25], in data set [26] and in data set [27] was Active. Further, the MIC in data set [2] was found to be 38 µg/mL (≈ 11.6 µM); in data set [12] it was 4.9 µg/mL (≈ 1.5 µM); in [13], 9.7 µg/mL (≈ 2.97 µM); in [22], 4.7 µg/mL (≈ 1.44 µM). Moreover, the Activity in [3] is 77.25%; in data set [4] it was “Toxic”; in data set [6], “Toxic”; in data set [10] it was “Active; Model Group Showed Yellowish Compared With The Wounds Treated With Compound”; in [15], 86.42%; in data set [19], “Toxic”. Further, the outcome in data set [11] and in data set [14] was inactive.
Consider `CC(=O)N[C@@H](CC(C)C)C(=O)N[C@@H](CCCCN)C(=O)N[C@@H](CCCNC(=N)N[C@@H]1O[C@H](CO)[C@@H](O[C@H]2O[C@H](CO)[C@@H](O[C@H]3O[C@H](CO)[C@@H](O)[C@H](O)[C@H]3O)[C@H](O)[C@H]2O)[C@H](O)[C@H]1O)C(=O)N[C@H](C(=O)N[C@@H](Cc1c[nH]c2ccccc12)C(=O)N[C@@H](CCCCN)C(=O)N[C@@H](CCCNC(=N)N)C(=O)N[C@H](C(=O)N[C@@H](Cc1ccccc1)C(=O)N[C@@H](CCCCN)C(=O)N[C@@H](CC(C)C)C(=O)N[C@@H](CC(C)C)C(=O)N[C@@H](CCCCN)C(=O)N[C@@H](CCCNC(=N)N)C(=O)N[C@@H](Cc1ccc(O)cc1)C(=O)N[C@@H](Cc1c[nH]c2ccccc12)C(=O)N[C@@H](CCCNC(=N)N)C(=O)N[C@@H](CCC(N)=O)C(=O)N[C@@H](CC(C)C)C(=O)N[C@@H](CCCCN)C(=O)N[C@@H](CCCCN)C(=O)N1CCC[C@H]1C(=O)N[C@H](C(=O)N[C@@H](CCCNC(=N)N)C(N)=O)C(C)C)C(C)C)C(C)C` (Ac-LK[X1]VWKRVFKLLKRYWRQLKKPVR-NH2), for which the minimal inhibitory concentration (MIC) turned out to be 38 µg/mL (≈ 10.1 µM) in data set [2], 5 µg/mL (≈ 1.33 µM) in [12], 2.5 µg/mL (≈ 0.666 µM) in data set [13] and 16.9 µg/mL (≈ 4.5 µM) in [22]. Moreover, the HC50 at 1 h in data set [28] came out at 58.1 µg/mL.
As for `CC(=O)N[C@@H]1[C@@H](O)[C@H](O)[C@@H](CO)O[C@H]1NC(=N)NCCC[C@H](NC(=O)[C@H](CCCCN)NC(=O)[C@H](CC(C)C)NC(C)=O)C(=O)N[C@H](C(=O)N[C@@H](Cc1c[nH]c2ccccc12)C(=O)N[C@@H](CCCCN)C(=O)N[C@@H](CCCNC(=N)N)C(=O)N[C@H](C(=O)N[C@@H](Cc1ccccc1)C(=O)N[C@@H](CCCCN)C(=O)N[C@@H](CC(C)C)C(=O)N[C@@H](CC(C)C)C(=O)N[C@@H](CCCCN)C(=O)N[C@@H](CCCNC(=N)N)C(=O)N[C@@H](Cc1ccc(O)cc1)C(=O)N[C@@H](Cc1c[nH]c2ccccc12)C(=O)N[C@@H](CCCNC(=N)N)C(=O)N[C@@H](CCC(N)=O)C(=O)N[C@@H](CC(C)C)C(=O)N[C@@H](CCCCN)C(=O)N[C@@H](CCCCN)C(=O)N1CCC[C@H]1C(=O)N[C@H](C(=O)N[C@@H](CCCNC(=N)N)C(N)=O)C(C)C)C(C)C)C(C)C` (Ac-LK[X2]VWKRVFKLLKRYWRQLKKPVR-NH2), the MIC amounted to 38 µg/mL (≈ 10.9 µM) in [2], 5 µg/mL (≈ 1.44 µM) in [12], 2.5 µg/mL (≈ 0.72 µM) in data set [13] and 9.9 µg/mL (≈ 2.85 µM) in [22]. For the same molecule, the HC50 at 1 h in data set [28] was found to be 45.2 µg/mL.

For the origin of these results see ChEMBL document CHEMBL6153110, “Peptide Double-Stapling and Arginine N-Glycosylation Triggered the Development of Therapeutic Antimicrobial Peptides Capable of Killing Drug-Resistant Bacteria in Mice” (J Med Chem, 2025).
